Assay results taken from patent US7300946B2, “N-(substituted arylmethyl)-4-(disubstituted methyl) piperidines and pyridines” (Bayer CropScience AG, priority 2002, dated 2007).

Test system: tobacco budworm (Heliothis virescens [Fabricius])
Test: surface-treated diet test against the tobacco budworm
Format: in vivo
Conditions: tobacco budworm second instar larvae, 0.25 millimoles of candidate insecticide on the surface of the diet, five-day exposure; for Percent Mortality: compared to total number of insects infested; for Percent Growth Inhibition: inhibition of insect weight relative to untreated controls
Method: Candidate insecticides were evaluated for activity against the tobacco budworm (Heliothis virescens [Fabricius]) in a surface-treated diet test.
In this test one mL of molten (65–70° C.) wheat germ-based artificial diet was pipetted into each well of a four by six (24 well) multi-well plate (ID# 430345-15.5 mm dia.×17.6 mm deep; Corning Costar Corp., One Alewife Center, Cambridge, Mass. 02140). The diet was allowed to cool to ambient temperature before treatment with candidate insecticide.
For a determination of insecticidal activity, solutions of the candidate insecticides were prepared for testing using a Packard 204DT Multiprobe® Robotic System (Packard Instrument Company, 800 Research Parkway, Meriden, Conn. 06450), in which the robot first diluted a standard 50 millimolar DMSO solution of candidate insecticide with a 1:1 water/acetone solution (V/V) in a ratio of 1:7 stock solution to water/acetone. The robot subsequently pipetted 40 microliters of the so-prepared solution onto the surface of the diet in each of three wells in the 24 multi-well plate. The process was repeated with solutions of seven other candidate insecticides. Once treated, the contents of the multi-well plate were allowed to dry, leaving 0.25 millimoles of candidate insecticide on the surface of the diet, or a concentration of 0.25 millimolar. Appropriate untreated controls containing only DMSO on the diet surface were also included in this test. […]
In each well of the test plate was placed one second instar tobacco budworm larvea, each weighing approximately five milligrams. After the larvae were placed in each well, the plate was sealed with clear polyfilm adhesive tape. The tape over each well was perforated to ensure an adequate air supply. The plates were then held in a growth chamber at 25° C. and 60% relative humidity for five days (light 14 hours/day).
After the five-day exposure period insecticidal activity for each rate of application of candidate insecticide was assessed as percent inhibition of insect weight relative to the weight of insects from untreated controls, and percent mortality when compared to the total number of insects infested.
The test compounds of formula I are identified by numbers that correspond to those in Table 1.
These tests were conducted with 0.25 millimoles of candidate insecticide on the surface of the diet.

| SMILES | Percent Mortality (surface-treated diet) | Percent Growth Inhibition (surface-treated diet) | Percent Mortality | Percent Growth Inhibition |
| --- | --- | --- | --- | --- |
| CCn1nnc(-c2ccc(CN3CCC(C(OC(=O)Nc4ccc(F)c(F)c4)c4cccc(F)c4)CC3)cc2)n1 (stereo not shown) [Compound 584] | 100% | 100% | – | – |
| N#Cc1cccnc1Oc1ccc(CN2CCC(C(OC(=O)Nc3cc(F)cc(F)c3)c3ccc(C(F)(F)F)cc3)CC2)cc1 (stereo not shown) [Compound 687] | 100% | 100% | – | – |
| O=C(Nc1ccc(Cl)cc1)OC(c1ccc(C(F)(F)F)cc1)C1CCN(Cc2ccc(Oc3ccccn3)cc2)CC1 (stereo not shown) [Compound 665] | 0% | 100% | – | – |
| [O-][N+]1(Cc2ccc(Nc3ccccn3)cc2)CCC(=C(c2ccc(C(F)(F)F)cc2)c2ccc(C(F)(F)F)cc2)CC1 (stereo not shown) [Compound 843] | – | – | 100% | 100% |
| FC(F)(F)c1ccc(C(Oc2ccc(Cl)nn2)C2CCN(Cc3ccc(Oc4ccccn4)cc3)CC2)cc1 (stereo not shown) [Compound 452] | 67% | 100% | – | – |
| CC(C)OC(=O)Nc1ccc(CN2CCC(C(OC(=O)Nc3cc(F)cc(F)c3)c3cc(Cl)cc(Cl)c3)CC2)cc1 (stereo not shown) [Compound 510] | 100% | 100% | – | – |
| CCn1nnc(-c2ccc(CN3CCC(=C(c4ccc5c(c4)OC(F)(F)O5)c4ccc5c(c4)OC(F)(F)O5)CC3)cc2)n1 [Compound 83] | 100% | 100% | – | – |
| O=C(Nc1ccc(CN2CCC(=C(c3ccc(C(F)(F)F)cc3)c3ccc(C(F)(F)F)cc3)CC2)cc1)C(F)(F)F [Compound 53] | 0% | 100% | – | – |
| Cn1nnc(-c2ccc(CN3CCC(C(NC(=O)Nc4cccc(F)c4)c4ccc(OC(F)(F)F)cc4)CC3)cc2)n1 (stereo not shown) [Compound 339] | 50% | 100% | – | – |
| CCON=Cc1ccc(CN2CCC(C(OC(=O)Nc3ccc(Cl)cc3)c3cc(Cl)cc(Cl)c3)CC2)cc1 (stereo not shown) [Compound 532] | 100% | 100% | – | – |
| Cn1nnc(-c2ccc(CN3CCC(C(NC(=O)Nc4ccc(I)cc4)c4ccc(OC(F)(F)F)cc4)CC3)cc2)n1 (stereo not shown) [Compound 341] | 100% | 100% | – | – |
| O=C(Nc1cc(F)cc(F)c1)OC(c1ccc(C(F)(F)F)cc1)C1CCN(Cc2ccc(Oc3ncccc3Cl)cc2)CC1 (stereo not shown) [Compound 683] | 100% | 100% | – | – |
| Cn1nnc(-c2ccc(CN3CCC(C(OC(=O)Nc4ccccc4F)c4ccc(OC(F)(F)F)cc4)CC3)cc2)n1 (stereo not shown) [Compound 272] | 99% | 100% | – | – |
| O=C(Nc1cccc(C(F)(F)F)c1)OC(c1ccc(Cl)cc1)C1CCN(Cc2ccc(Oc3ccccn3)cc2)CC1 (stereo not shown) [Compound 634] | 100% | 100% | – | – |
| CCn1nnc(-c2ccc(CN3CCC(C(OC(=O)Nc4ccc(Cl)cc4)c4ccc(C(F)(F)F)cc4)CC3)cc2)n1 (stereo not shown) [Compound 265] | 100% | 100% | – | – |
| O=C(Nc1ccc(F)cc1)OC(c1ccc(Cl)c(Cl)c1)C1CCN(Cc2ccc(Oc3ncccn3)cc2)CC1 (stereo not shown) [Compound 722] | – | – | 83% | 100% |
| CCn1nnc(-c2ccc(CN3CCC(C(OC(=O)Nc4cccc(Br)c4)c4ccc(C(F)(F)F)cc4)CC3)cc2)n1 (stereo not shown) [Compound 268] | 100% | 100% | – | – |
| [O-][N+]1(Cc2ccc(Oc3ncccc3C(F)(F)F)cc2)CCC(=C(c2ccc(C(F)(F)F)cc2)c2ccc(C(F)(F)F)cc2)CC1 (stereo not shown) [Compound 109] | 100% | 100% | – | – |
| O=C(CCN1CCC(=C(c2ccccc2)c2ccccc2)CC1)c1ccccc1 [Compound 85] | 100% | 100% | – | – |
| CCON=Cc1ccc(CN2CCC(C(OC(=O)Nc3cccc(Cl)c3Cl)c3ccc(C(F)(F)F)cc3)CC2)cc1 (stereo not shown) [Compound 188] | 100% | 100% | – | – |
| O=C(NCc1ccccc1Cl)OC(c1ccc(C(F)(F)F)cc1)C1CCN(Cc2ccc(Oc3ccccn3)cc2)CC1 (stereo not shown) [Compound 663] | 50% | 100% | – | – |

| SMILES | Percent Mortality (surface-treated diet) | Percent Growth Inhibition (surface-treated diet) | Percent Mortality | Percent Growth Inhibition |
| --- | --- | --- | --- | --- |
| [O-][N+]1(Cc2ccc(Oc3ncccn3)cc2)CCC(=C(c2ccc(C(F)(F)F)cc2)c2cccc(Cl)c2)CC1 (stereo not shown) [Compound 846] | – | – | 100% | 100% |
| O=C(Nc1cc(F)c(F)c(F)c1)OC(c1ccc(C(F)(F)F)cc1)C1CCN(Cc2ccc(Oc3ccccn3)cc2)CC1 (stereo not shown) [Compound 697] | 100% | 100% | – | – |
| [O-][N+]1(Cc2ccc(Oc3ncccn3)cc2)CCC(=C(c2ccc(Cl)c(Cl)c2)c2ccc(Cl)c(Cl)c2)CC1 (stereo not shown) [Compound 849] | – | – | 100% | 100% |
| CCON=Cc1ccc(CN2CCC(C(OC(=O)Nc3cc(Cl)ccc3Cl)c3ccc(C(F)(F)F)cc3)CC2)cc1 (stereo not shown) [Compound 191] | 100% | 100% | – | – |
| C=CCOC(=O)Nc1ccc(CN2CCC(=C(c3ccc(C(F)(F)F)cc3)c3ccc(C(F)(F)F)cc3)CC2)cc1 [Compound 797] | – | – | 100% | 100% |
| CCn1nnc(-c2ccc(CN3CCC(C(OC(=O)Nc4cc(F)cc(F)c4)c4ccc(F)c(F)c4)CC3)cc2)n1 (stereo not shown) [Compound 589] | 100% | 100% | – | – |
| Cn1nnc(-c2ccc(CN3CCC(C(NC(=O)Oc4ccc(I)cc4)c4ccc(OC(F)(F)F)cc4)CC3)cc2)n1 (stereo not shown) [Compound 354] | 100% | 100% | – | – |
| O=C(Nc1cc(F)cc(F)c1)OC(c1ccc(C(F)(F)F)cc1)C1CCN(Cc2ccc(S(=O)(=O)NC3CCCC3)cc2)CC1 (stereo not shown) [Compound 542] | 0% | 43% | – | – |
| CCOC(=O)Nc1ccc(C[N+]2([O-])CCC(=C(c3ccc(C(F)(F)F)cc3)c3ccc(C(F)(F)F)cc3)CC2)cc1 (stereo not shown) [Compound 101, N-{4-[(4-{bis[4-(trifluoromethyl)phenyl]methylene}piperidyl)methyl]phenyl}ethoxycarboxamide, N-oxide] | 100% | 100% | – | – |
| CCCOc1ccc(CN2CCC(C(OC(=O)Nc3ccc(Cl)cc3)c3ccc(C(F)(F)F)cc3)CC2)cc1 (stereo not shown) [Compound 490] | 100% | 100% | – | – |
| CCON=Cc1ccc(CN2CCC(C(OC(=O)Nc3ccc(Cl)c(C(F)(F)F)c3)c3ccc(C(F)(F)F)cc3)CC2)cc1 (stereo not shown) [Compound 207] | 100% | 100% | – | – |
| Cc1ccc(CNC(=O)OC(c2ccc(C(F)(F)F)cc2)C2CCN(Cc3ccc(Oc4ccccn4)cc3)CC2)cc1 (stereo not shown) [Compound 695] | 100% | 100% | – | – |
| O=C(Nc1ccc(Cl)cc1)OC(c1ccc(C(F)(F)F)cc1)C1CCN(Cc2ccc(Oc3ccccn3)cc2)CC1 (stereo not shown) [Compound 227, N-(4-chlorophenyl)({1-[(4-(2-pyridyloxy)phenyl)methyl](4-piperidyl)}[4-(trifluoromethyl)phenyl]methoxy)carboxamide] | 100% | 100% | – | – |
| CCn1nnc(-c2ccc(C[N+]3([O-])CCC(C(OC(=O)Nc4ccc(OC(F)(F)F)cc4)c4ccc(OC(F)(F)F)cc4)CC3)cc2)n1 (stereo not shown) [Compound 405] | 100% | 100% | – | – |
| O=C(Nc1cccc(F)c1)OC(c1ccc(OC(F)(F)F)cc1)C1CCN(Cc2ccc(Oc3ccccn3)cc2)CC1 (stereo not shown) [Compound 235] | 100% | 100% | – | – |
| CCn1nnc(-c2ccc(CN3CCC(C(OC(=O)c4ccc(OC(F)(F)F)cc4)c4ccc(OC(F)(F)F)cc4)CC3)cc2)n1 (stereo not shown) [Compound 308] | 100% | 92% | – | – |
| O=C(Nc1cccc(F)c1)OC(c1ccc(Cl)cc1)C1CCN(Cc2ccc(Oc3ncccn3)cc2)CC1 (stereo not shown) [Compound 713] | – | – | 100% | 100% |
| Cn1nnc(-c2ccc(CN3CCC(C(NC(=O)Nc4ccc(OC(F)(F)F)cc4)c4ccc(OC(F)(F)F)cc4)CC3)cc2)n1 (stereo not shown) [Compound 345] | 100% | 100% | – | – |
| Cn1nnc(-c2ccc(CN3CCC(C(NC(=O)Oc4cccc(F)c4)c4ccc(OC(F)(F)F)cc4)CC3)cc2)n1 (stereo not shown) [Compound 352] | 83% | 100% | – | – |
| O=C(Nc1c(Cl)cccc1Cl)OC(c1ccc(C(F)(F)F)cc1)C1CCN(Cc2ccc(Oc3ccccn3)cc2)CC1 (stereo not shown) [Compound 233] | 33% | 100% | – | – |
